In patent US10618914B2 (UNIVERSITY OF PITTSBURGH—OF THE COMMONWEALTH SYSTEM OF …, priority 2015, dated 2020):
Where two headings read alike, the source gives them in different places.

Key:
Assay type in all cases: cell-based
[1] = test system: STAT1; assay: STAT1 assay (selectivity counter-screen)
[2] = test system: HNSCC cell lines 686LN, FADU, CAL33, OSC19; assay: Growth inhibition on HNSCC cell line panel; conditions: range over cell lines 686LN
[3] = test system: STAT3; assay: HCS STAT3 assay; conditions: read-out: STAT3 IC50 (converted)
[4] = test system: Cal33 cells; assay: Cal33 growth inhibition
[5] = test system: FADU; assay: Growth inhibition on HNSCC cell line FADU; conditions: average of 2 experiments
[6] = test system: OSC19; assay: Growth inhibition on HNSCC cell line OSC19; conditions: average of 2 experiments; read-out: 0SC19 GI50
[7] = test system: 686LN; assay: Growth inhibition on HNSCC cell line 686LN; conditions: average of 2 experiments
[8] = Table 5, * average of 2 experiments
[9] = Table 6, average of 2 experiments

| SMILES | GI50 [4, 8] | IC50 [1, 8] | IC50 [3, 8] | further results |
| --- | --- | --- | --- | --- |
| Clc1ccc(C2=Nn3c(nnc3-c3cc(-c4ccccc4)n[nH]3)SC2)cc1 [2b] | – | – | – | IC50 ([1]; Table 4): > 50 µM; GI50 [2]: 27 to 44 µM; IC50 ([3]; Table 4): 9.6 µM |
| CCCCC1Sc2nnc(-c3[nH]nc4c3CCC4)n2N=C1c1ccc(Cl)c(Cl)c1 (centres unmarked) [Cmpd 29] | 3.3 µM | > 50 µM | 7.5 µM | – |
| CC1(C)Sc2nnc(-c3[nH]nc4c3CCC4)n2N=C1c1ccc(Cl)c(Cl)c1 [Cmpd 32] | > 50 µM | > 50 µM | 18.6 µM | – |
| COc1ccc(C2=Nn3c(nnc3-c3cc(-c4ccc(Cl)cc4)n[nH]3)SC2C)cc1 (centres unmarked) [compound 24] | – | – | – | GI50 [5]: 8.4 µM; GI50 [6]: 14.9 µM; GI50 [4, 9]: 2.2 µM; GI50 [7]: 17.4 µM |
| CC1Sc2nnc(-c3[nH]nc4c3CCC4)n2N=C1c1ccc(Cl)c(Cl)c1 (centres unmarked) [Cmpd 19] | 1.9 ± 1.2 µM | > 50 µM | 8.2 ± 2.2 µM | – |
| CC(C)C1Sc2nnc(-c3[nH]nc4c3CCC4)n2N=C1c1ccc(Cl)c(Cl)c1 (centres unmarked) [Cmpd 25] | 8.2 µM | > 50 µM | 4.4 µM | – |
| CC1Sc2nnc(-c3cc(-c4ccc(F)cc4)n[nH]3)n2N=C1c1ccccc1 (centres unmarked) [Cmpd 22] | 36.3 ± 9.7 µM | > 30 µM | 3.8 ± 0.8 µM | – |
| Clc1ccc(C2=Nn3c(nnc3-c3[nH]nc4c3CCC4)SC2)cc1Cl [1a] | – | – | – | IC50 ([1]; Table 4): > 50 µM; GI50 [2]: 14 to 26 µM; IC50 ([3]; Table 4): 6.8 ± 3.7 µM |
| COc1ccc(C2=Nn3c(nnc3-c3[nH]nc4c3CCC4)SC2C)cc1 (centres unmarked) [compound 20] | – | – | – | GI50 [5]: 1.3 µM; GI50 [6]: 3.1 µM; GI50 [4, 9]: 0.18 µM; GI50 [7]: 0.88 µM |
| CCC(C)C1Sc2nnc(-c3[nH]nc4c3CCC4)n2N=C1c1ccc(OC)cc1 (centres unmarked) [Cmpd 27] | 3.5 ± 1.5 µM | > 50 µM | 4.1 µM | – |
| COc1ccc(C2=Nn3c(nnc3-c3cc(-c4ccc(F)cc4)n[nH]3)SC2C)cc1 (centres unmarked) [Cmpd 23] | 29.5 ± 6.5 µM | > 30 µM | 4.2 µM | – |
